In US8703961B2, “Thiazole derivatives for the treatment of diseases such as cancer” (Merck Patent GmbH, priority 2009, dated 2014):

Columns and labels:
Type in all cases: biochemical
KDR (VEGFR) = biological target: T1, KDR (VEGFR) (Homo sapiens, UniProt P35968); assay: filter binding kinase assay; conditions: for IC50: derived from % inhibition at 1 μM
T1 construct: purchased
Summary of the method: (§1)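 Compound was pre-incubated with enzyme and substrate for 5 minutes at room temperature, then the reaction was started with ATP (added solution at 5, 20 or 50 […] depending on kinase). Orthophosphoric acid stopped it, and phosphorylated substrate captured on P81 filters was quantified by scintillation counting.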

MKNK2 = biological target: T2, MKNK2 (Homo sapiens, UniProt Q9HBH9); assay: filter binding kinase assay; conditions: derived from % inhibition at 1 μM
T2 construct: purchased
Summary of the method: as §1

NEK2 (Nek2A) = biological target: T3, NEK2 (Nek2A) (Homo sapiens, UniProt P51955); assay: filter binding kinase assay; conditions: for IC50: derived from % inhibition at 1 μM
T3 construct: purchased
T3 sequence (P51955 1-445): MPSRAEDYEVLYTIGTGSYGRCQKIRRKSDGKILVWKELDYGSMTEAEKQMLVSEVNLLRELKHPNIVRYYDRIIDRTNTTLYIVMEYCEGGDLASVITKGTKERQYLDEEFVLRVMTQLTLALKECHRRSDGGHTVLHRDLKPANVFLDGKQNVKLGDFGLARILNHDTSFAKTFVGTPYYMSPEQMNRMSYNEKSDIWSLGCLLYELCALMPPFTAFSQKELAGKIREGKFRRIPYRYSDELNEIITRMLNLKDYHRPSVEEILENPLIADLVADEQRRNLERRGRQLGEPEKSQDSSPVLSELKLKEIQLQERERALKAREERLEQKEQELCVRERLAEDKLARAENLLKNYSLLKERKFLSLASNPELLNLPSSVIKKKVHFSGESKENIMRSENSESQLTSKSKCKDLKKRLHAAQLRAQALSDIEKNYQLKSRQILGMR
Summary of the method: as §1

PAK4 (PAK-4) = biological target: T4, PAK4 (PAK-4) (Homo sapiens, UniProt O96013); assay: filter binding kinase assay; conditions: for IC50: derived from % inhibition at 1 μM
T4 construct: purchased
Summary of the method: as §1

SYK = biological target: T5, SYK (Homo sapiens, UniProt P43405); assay: filter binding kinase assay; conditions: derived from % inhibition at 1 μM
T5 construct: purchased
Summary of the method: as §1

TGFBR1 = biological target: T6, TGFBR1 (Homo sapiens, UniProt P36897); assay: filter binding kinase assay; conditions: derived from % inhibition at 1 μM
T6 construct: purchased
T6 sequence (P36897 34-503): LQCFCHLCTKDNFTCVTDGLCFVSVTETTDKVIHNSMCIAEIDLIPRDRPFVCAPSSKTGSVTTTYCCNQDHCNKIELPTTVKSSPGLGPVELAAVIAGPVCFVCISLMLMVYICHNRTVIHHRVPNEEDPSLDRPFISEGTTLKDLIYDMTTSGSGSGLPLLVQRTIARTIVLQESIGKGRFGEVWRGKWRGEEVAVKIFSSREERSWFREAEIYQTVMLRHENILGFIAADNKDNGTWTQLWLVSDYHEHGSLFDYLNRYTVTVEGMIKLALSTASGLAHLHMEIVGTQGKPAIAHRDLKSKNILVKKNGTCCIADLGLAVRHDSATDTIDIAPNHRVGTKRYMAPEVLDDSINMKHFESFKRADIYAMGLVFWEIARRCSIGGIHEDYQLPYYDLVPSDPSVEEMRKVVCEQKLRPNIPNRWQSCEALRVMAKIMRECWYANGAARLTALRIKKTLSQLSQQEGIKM
Summary of the method: as §1

PDPK1 = biological target: T7, PDPK1 (Homo sapiens, UniProt O15530); assay: filter binding kinase assay (second PDPK1 line); conditions: derived from % inhibition at 1 μM
T7 construct: purchased
T7 sequence (O15530 1-556): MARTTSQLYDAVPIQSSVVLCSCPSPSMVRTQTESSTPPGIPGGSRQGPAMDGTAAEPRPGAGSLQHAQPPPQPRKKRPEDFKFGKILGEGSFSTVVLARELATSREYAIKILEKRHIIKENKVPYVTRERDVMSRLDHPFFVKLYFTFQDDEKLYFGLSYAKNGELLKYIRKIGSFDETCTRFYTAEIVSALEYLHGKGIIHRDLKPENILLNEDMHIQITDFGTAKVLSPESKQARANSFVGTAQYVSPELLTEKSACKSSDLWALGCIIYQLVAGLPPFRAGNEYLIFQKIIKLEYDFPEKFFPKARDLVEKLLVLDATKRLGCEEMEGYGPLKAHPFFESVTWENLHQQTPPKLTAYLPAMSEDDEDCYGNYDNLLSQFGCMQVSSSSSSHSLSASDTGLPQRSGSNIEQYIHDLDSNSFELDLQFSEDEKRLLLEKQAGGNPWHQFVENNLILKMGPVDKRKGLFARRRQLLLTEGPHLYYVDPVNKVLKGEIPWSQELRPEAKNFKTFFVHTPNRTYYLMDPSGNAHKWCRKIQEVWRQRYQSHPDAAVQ
Method: (§2) All kinase assays were carried out using the Multidrop 384 from Thermo-Fisher at room temperature in a total assay volume of 25.5 μl. 15 μl of an enzyme mix comprising enzyme and substrate in buffer are added to the test batch comprising either 0.5 μl of test substance, DMSO control or empty container. Test substances are pre-incubated in the presence of the enzyme and substrate for 5 minutes before the reaction is initiated by addition of 10 μl of ATP (concentration kinase-dependent of […]). The reaction is terminated by addition of 5 μl of orthophosphoric acid (50 mM). The test containers are then transferred onto P81 Unifilter plates by means of a “Packard Harvester” and dried in air. The dry Unifilter plates are sealed after the addition of MicroScint O, and the radioactivity is determined in a Packard Topcount NXT.

MAPK8 = MAPK8 (Homo sapiens, UniProt P45983); assay: filter binding kinase assay; parameters: purchased; conditions: derived from % inhibition at 1 μM; first MAPK8 line
Method: as §2

T1 sequence (P35968 20-1356, species assumed): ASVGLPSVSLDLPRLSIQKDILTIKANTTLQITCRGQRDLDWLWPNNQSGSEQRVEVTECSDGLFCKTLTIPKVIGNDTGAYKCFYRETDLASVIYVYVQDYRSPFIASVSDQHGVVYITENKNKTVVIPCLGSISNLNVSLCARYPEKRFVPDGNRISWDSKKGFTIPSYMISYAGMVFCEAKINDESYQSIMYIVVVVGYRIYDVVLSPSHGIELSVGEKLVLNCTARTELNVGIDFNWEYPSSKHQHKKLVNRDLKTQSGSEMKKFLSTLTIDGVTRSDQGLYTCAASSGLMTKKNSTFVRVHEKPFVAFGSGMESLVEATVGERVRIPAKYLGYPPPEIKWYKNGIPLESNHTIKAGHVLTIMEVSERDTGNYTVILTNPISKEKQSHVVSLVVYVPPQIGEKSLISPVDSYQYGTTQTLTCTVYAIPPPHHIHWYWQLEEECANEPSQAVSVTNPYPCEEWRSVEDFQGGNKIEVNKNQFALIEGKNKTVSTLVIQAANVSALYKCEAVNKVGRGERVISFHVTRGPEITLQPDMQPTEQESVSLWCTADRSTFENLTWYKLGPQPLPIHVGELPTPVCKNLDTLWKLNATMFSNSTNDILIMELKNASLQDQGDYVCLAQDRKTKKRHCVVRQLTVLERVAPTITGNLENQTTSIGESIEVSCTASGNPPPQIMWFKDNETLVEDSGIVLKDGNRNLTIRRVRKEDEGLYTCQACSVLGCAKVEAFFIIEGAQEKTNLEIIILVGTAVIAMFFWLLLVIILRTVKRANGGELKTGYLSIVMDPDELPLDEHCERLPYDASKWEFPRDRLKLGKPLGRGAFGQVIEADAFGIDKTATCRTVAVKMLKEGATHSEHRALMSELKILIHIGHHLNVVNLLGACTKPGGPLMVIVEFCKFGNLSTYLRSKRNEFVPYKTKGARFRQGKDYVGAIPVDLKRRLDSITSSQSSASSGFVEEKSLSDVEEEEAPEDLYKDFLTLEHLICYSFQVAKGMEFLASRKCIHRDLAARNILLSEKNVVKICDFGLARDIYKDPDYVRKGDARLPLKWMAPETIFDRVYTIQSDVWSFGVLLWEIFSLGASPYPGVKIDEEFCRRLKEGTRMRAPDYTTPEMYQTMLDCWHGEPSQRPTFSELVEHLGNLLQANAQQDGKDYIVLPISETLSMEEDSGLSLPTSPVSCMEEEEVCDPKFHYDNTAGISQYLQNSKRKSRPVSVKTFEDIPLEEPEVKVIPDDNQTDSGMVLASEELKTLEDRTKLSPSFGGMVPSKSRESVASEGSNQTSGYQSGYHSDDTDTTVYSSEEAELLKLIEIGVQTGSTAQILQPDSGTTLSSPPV
MAPK8, sequence (P45983 whole entry, species assumed): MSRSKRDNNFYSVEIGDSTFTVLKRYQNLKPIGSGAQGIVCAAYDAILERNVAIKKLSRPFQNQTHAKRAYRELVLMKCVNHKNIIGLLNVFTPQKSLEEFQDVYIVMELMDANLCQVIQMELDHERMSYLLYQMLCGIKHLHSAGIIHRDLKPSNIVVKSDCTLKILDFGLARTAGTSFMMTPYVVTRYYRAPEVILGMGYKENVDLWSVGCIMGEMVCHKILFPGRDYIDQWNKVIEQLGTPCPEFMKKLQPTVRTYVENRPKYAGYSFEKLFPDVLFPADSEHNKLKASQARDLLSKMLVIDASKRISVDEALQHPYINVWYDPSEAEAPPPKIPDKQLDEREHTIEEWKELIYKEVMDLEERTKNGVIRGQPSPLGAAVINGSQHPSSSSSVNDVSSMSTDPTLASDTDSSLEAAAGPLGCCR
T2 sequence (Q9HBH9 whole entry, species assumed): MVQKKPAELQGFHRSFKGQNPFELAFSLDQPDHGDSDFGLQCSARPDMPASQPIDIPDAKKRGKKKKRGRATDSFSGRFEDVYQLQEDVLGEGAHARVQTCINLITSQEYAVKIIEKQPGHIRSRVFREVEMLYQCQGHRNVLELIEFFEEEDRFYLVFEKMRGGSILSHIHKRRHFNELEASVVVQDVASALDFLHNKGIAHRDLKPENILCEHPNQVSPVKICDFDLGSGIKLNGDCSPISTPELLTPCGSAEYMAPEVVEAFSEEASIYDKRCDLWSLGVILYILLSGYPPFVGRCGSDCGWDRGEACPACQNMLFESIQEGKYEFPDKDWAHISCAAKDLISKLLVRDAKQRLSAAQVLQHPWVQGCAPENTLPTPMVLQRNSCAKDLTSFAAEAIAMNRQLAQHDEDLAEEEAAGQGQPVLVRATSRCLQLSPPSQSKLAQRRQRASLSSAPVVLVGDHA
T4 sequence (O96013 whole entry, species assumed): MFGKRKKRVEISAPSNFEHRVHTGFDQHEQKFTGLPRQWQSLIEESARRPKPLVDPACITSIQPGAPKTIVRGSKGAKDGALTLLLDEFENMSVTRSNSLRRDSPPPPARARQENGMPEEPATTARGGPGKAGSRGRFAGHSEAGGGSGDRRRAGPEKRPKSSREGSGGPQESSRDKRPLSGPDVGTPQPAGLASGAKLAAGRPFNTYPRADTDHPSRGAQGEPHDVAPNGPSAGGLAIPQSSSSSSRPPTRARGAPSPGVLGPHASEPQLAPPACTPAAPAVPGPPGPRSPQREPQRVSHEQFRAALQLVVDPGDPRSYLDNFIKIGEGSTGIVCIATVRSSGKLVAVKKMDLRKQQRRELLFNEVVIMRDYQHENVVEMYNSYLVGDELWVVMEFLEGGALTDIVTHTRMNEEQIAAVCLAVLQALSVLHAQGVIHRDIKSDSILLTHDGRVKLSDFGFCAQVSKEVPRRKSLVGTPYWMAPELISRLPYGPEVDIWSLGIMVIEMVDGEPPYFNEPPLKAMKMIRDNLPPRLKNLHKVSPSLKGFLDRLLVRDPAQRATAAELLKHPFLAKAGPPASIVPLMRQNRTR

Compound	IC50 (KDR (VEGFR))	IC50 (MKNK2)	IC50 (NEK2 (Nek2A))	IC50 (PAK4 (PAK-4))	IC50 (SYK)	IC50 (TGFBR1)	IC50 (PDPK1)	IC50 (MAPK8)	remaining activity at 1 µM (KDR (VEGFR); read-out: residual kinase activity VEGFR)	remaining activity at 1 µM (PAK4 (PAK-4); read-out: residual kinase activity PAK-4)	remaining activity at 1 µM (NEK2 (Nek2A); read-out: residual kinase activity Nek2A)
c1ccc(Cc2c[nH]c3ncsc23)cc1 [Compound A7, 6-benzyl-4H-pyrrolo[2,3-d]thiazole]	1000 to 10000 nM	> 1000 nM	> 1000 nM	> 1000 nM	> 1000 nM	10000 to 100000 nM	> 1000 nM	1000 to 10000 nM	–	–	–
Nc1ncsc1C#Cc1cnc2[nH]ccc2c1 [Compound A22, 5-(1H-pyrrolo[2,3-b]pyridin-5-ylethynyl)thiazol-4-ylamine]	10 to 1000 nM	> 1000 nM	> 1000 nM	10 to 1000 nM	10000 to 100000 nM	10000 to 100000 nM	1000 to 10000 nM	–	11%	34%	–
CC(C)(C)OC(=O)Nc1nc(-c2ccncc2)sc1C#CCN1CCOCC1 [Compound A25, tert-butyl[5-(3-morpholin-4-ylprop-1-ynyl)-2-pyridin-4-ylthiazol-4-yl]-carbamate]	> 1000 nM	> 1000 nM	1000 to 10000 nM	> 1000 nM	> 1000 nM	1000 to 10000 nM	> 1000 nM	> 1000 nM	–	–	–
CC(C)(C)OC(=O)Nc1ncsc1C#CCN1C(=O)c2ccccc2C1=O [Compound A26, tert-butyl{5-[3-(1,3-dioxo-1,3-dihydroisoindol-2-yl)prop-1-ynyl]-thiazol-4-yl}carbamate]	> 1000 nM	10000 to 100000 nM	1000 to 10000 nM	1000 to 10000 nM	> 1000 nM	10000 to 100000 nM	10000 to 100000 nM	10000 to 100000 nM	–	–	–
Nc1ncsc1C#Cc1cccc(O)c1 [Compound A27, 3-(4-aminothiazol-5-ylethynyl)phenol]	1000 to 10000 nM	> 1000 nM	1000 to 10000 nM	> 1000 nM	10000 to 100000 nM	1000 to 10000 nM	> 1000 nM	1000 to 10000 nM	–	–	59%
